The test system of this data set is female SKH-1 hairless mice. As to the kind of experiment: TPA-induced skin inflammation in female SKH-1 hairless mice, macroscopic visual scoring. It counts as in vivo. The protocol:
The study is performed on 18 female SKH-1 hairless mice, weighing roughly 20-25 g and divided into 3 groups (n=6/housed in pairs) under controlled temperature (24±2° C.) and humidity (50±20%) conditions and with a 12-hour reversed light cycle (light from 21:00 to 09:00) (food and water ad libitum).
The compounds to be tested are as follows: • Excipial® ointment (control) • PAT1657 (octyl-isochlorogenamide A) incorporated at 1.33% or 2.67% by mass in Excipial® ointment
The treatment groups are distributed as follows: • G1: induced skin inflammation+daily treatment with vehicle (Excipial® ointment) (Control), • G2: induced skin inflammation+treatment with PAT1657 incorporated at 1.33% by mass in Excipial® ointment (PAT1657/1.33%), • G3: induced skin inflammation+treatment with PAT1657 incorporated at 2.67% by mass in Excipial® ointment (PAT1657/2.67%). Induction and Maintenance of Skin Inflammation
Skin inflammation is induced for each mouse by daily dorsal cutaneous application to Zone A (FIG. 9) for 7 days (day 1 to day 7) of 100 μL of TPA acetone solution at a concentration of 0.2 mg/ml.
It is then maintained by cutaneous application every 2 days for 7 days (day 8 to day 14) of 100 μl of TPA acetone solution.
For the vehicle, the animals (G1) were treated daily by cutaneous application of 0.125 g of ointment on the backs of the mice just off the zone of application of TPA acetone solution (roughly 5 cm^2 area corresponding to zones A and B shown in FIG. 9), for 7 days from day 8 to day 14.
For compound PAT1657, the animals (G2 and G3) were treated by cutaneous application of 0.125 g of ointment on the backs of the mice just off the zone of application of TPA acetone solution (roughly 5 cm^2 area corresponding to zones A and B shown in FIG. 9), on days 8, 11 and 14.
Macroscopic visual scoring of skin inflammation is performed daily for each mouse from day 8 to day 15 by quantifying it according to the following scale (Guenon-Macé et al., 2015):
Macroscopic visual scoring of skin inflammation makes it possible to quantify the following parameters: • degree of skin inflammation in the TPA acetone solution application zone and in the ointment treatment zone corresponding to zone A in FIG. 9, • degree of skin inflammation in the ointment treatment zone and outside the TPA acetone solution application zone corresponding to zone B in FIG. 9, • degree of skin inflammation on the rest of the back corresponding to zone C in FIG. 9, • Overall macroscopic score of skin inflammation (total of the scores of the three zones A, B and C shown in FIG. 9). Result Animal Mortality

Setting [1] is: PAT1657 at 1.33% and 2.67% in Excipial ointment, relative to control, from day 10 onwards.

Molecules are shown by their SMILES.

For the molecule `CCCCCCCCNC(=O)[C@]1(O)C[C@@H](OC(=O)/C=C/c2ccc(O)c(O)c2)[C@@H](O)[C@H](OC(=O)/C=C/c2ccc(O)c(O)c2)C1` [PAT1657, (2E,2′E)-((1R,2S,3R,5S)-2,5-dihydroxy-5-(octylcarbamoyl)cyclohexane-1,3-diyl) bis(3-(3,4-dihydroxyphenyl)acrylate)], for the setting “PAT1657 at 1.33% and 2.67% in Excipial ointment, cutaneous, days 8, 11, 14, relative to control, from day 13 onwards”, the “degree of skin inflammation, zone A (TPA application zone and treatment zone)” value is “significant decrease”. In addition, under setting [1], the “degree of skin inflammation, zone C (rest of the back)” value is “significant decrease”; the “overall degree of skin inflammation (zones A, B and C)” value is reported as “significant decrease”. For the same molecule, where the note is “PAT1657 at 1.33% and 2.67% in Excipial ointment, relative to control, from day 13 onwards”, the “degree of skin inflammation, zone B (treatment zone outside TPA application zone)” value is “significant decrease”. Further, the “reaction to application of the products” value (SKH-1 mice, cutaneous application of ointments) is recorded as “No reaction was observed”. The “intensity of skin inflammation from a macroscopic point of view” value (two doses, cutaneous application every 3 days, curative treatment, dose-dependent effect) is given as “significantly reduced”.

These data come from US10786690B2, “Amide derivatives of polycaffeoylquinic acids, process for producing same and uses thereof” (TEMISIS, priority 2016, dated 2020).
